Assay results reported in publication PMC9127364, “2-Aminoacrylate stress damages diverse PLP-dependent enzymes in vivo” (The Journal of Biological Chemistry, 2022).

Experiments:
[1] = biological target: T1, IlvA (Salmonella enterica, UniProt P20506); test: pyruvate-PLP adduct released by base from the purified protein, HPLC; type: cell-based; conditions: covalent; 2AA formed in vivo, ridA host, 5 mM L-serine; attacks active-site PLP
T1 construct: pET20b derivative pDM1578, N-terminal His6 tag; expressed in S. enterica DM13509 (wild type) and DM17050 (ridA)
T1 sequence (P20506 1-514): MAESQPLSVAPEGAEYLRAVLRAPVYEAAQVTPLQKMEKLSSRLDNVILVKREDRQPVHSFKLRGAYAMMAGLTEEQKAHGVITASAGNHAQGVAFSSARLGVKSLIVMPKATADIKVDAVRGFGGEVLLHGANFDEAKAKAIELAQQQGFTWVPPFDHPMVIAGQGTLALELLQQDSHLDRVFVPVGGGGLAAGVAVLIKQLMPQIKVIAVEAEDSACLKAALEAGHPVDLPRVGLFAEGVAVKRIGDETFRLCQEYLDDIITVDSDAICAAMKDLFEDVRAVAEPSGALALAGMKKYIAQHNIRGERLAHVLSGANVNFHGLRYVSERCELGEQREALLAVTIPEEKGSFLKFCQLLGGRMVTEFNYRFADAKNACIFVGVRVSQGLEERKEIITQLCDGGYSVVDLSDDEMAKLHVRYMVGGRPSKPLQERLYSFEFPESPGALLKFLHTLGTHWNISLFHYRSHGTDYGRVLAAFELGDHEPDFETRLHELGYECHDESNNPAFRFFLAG

[2] = biological target: T2, Alr (Salmonella enterica, UniProt P0A1A3); test: as above; type: cell-based; conditions: covalent; 2AA formed in vivo, ridA host, 5 mM L-serine; attacks active-site PLP
T2 construct: pET20b derivative pDM1602, N-terminal His6 tag; expressed in and purified from S. enterica DM13509 (wild type) and DM17050 (ridA)
Source text: pyruvate-PLP adduct released by base from the purified protein, HPLC on Alr

[3] = biological target: T3, IlvE (Salmonella enterica, UniProt P0A1A5); test: as above; type: cell-based; conditions: covalent; 2AA formed in vivo, ridA host, 5 mM L-serine; attacks active-site PLP
T3 construct: pET28b plasmid, purified on HisTrap (His-tagged); expressed in S. enterica DM13509 (wild type) and DM17050 (ridA)
T3 sequence (P0A1A5 2-309): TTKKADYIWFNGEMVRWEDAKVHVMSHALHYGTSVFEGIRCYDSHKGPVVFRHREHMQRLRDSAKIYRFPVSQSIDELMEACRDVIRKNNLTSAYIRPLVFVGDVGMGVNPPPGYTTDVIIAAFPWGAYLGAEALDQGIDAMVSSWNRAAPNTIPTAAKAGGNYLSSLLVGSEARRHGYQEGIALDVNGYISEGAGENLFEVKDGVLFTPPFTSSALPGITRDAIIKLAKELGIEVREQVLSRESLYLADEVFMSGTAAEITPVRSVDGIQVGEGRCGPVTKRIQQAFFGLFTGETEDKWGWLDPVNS
Source text: pyruvate-PLP adduct released by base from the purified protein, HPLC on IlvE

[4] = biological target: T2, Alr; test: incubation with purified protein, base release of cofactors, HPLC; type: binding; conditions: covalent; suicide inhibitor, forms pyruvate-PLP in the active site; protein from ridA+ host
[5] = biological target: T2, Alr; test: base release of bound cofactor, HPLC at […] nm; type: binding; conditions: protein from wild-type (ridA+) host; 30 mM KOH release; storage buffer with 10 μM PLP
[6] = biological target: T1, IlvA; test: base release of bound cofactor, HPLC at […] nm; type: binding; conditions: protein from wild-type (ridA+) host; 30 mM KOH release; storage buffer with 10 μM PLP
[7] = biological target: T3, IlvE; test: base release of bound cofactor, HPLC at […] nm; type: binding; conditions: protein from wild-type (ridA+) host; 30 mM KOH release; storage buffer with 10 μM PLP
[8] = biological target: T3, IlvE; test: base release of bound cofactor, HPLC at […] nm; type: binding; conditions: protein from wild-type (ridA+) host; 30 mM KOH release; storage buffer with 10 μM PLP; remark: listed apart in the source

T2 sequence (P0A1A3 whole entry): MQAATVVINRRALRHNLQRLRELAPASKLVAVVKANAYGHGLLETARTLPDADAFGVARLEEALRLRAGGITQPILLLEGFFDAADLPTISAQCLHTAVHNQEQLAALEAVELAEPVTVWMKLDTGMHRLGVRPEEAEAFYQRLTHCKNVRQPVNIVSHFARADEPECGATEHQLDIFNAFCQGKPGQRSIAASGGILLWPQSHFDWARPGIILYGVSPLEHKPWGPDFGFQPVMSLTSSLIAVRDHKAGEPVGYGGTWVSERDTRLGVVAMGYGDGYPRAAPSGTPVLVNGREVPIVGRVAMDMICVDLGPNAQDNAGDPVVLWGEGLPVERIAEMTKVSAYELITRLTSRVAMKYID

`C=C(N)C(=O)O` [2AA] was tested, and the Pyruvate-PLP [1] was 0.03 ± <0.01, the Pyruvate-PLP [2] was 0.11 ± <0.01 and the Pyruvate-PLP [3] was 0.72 ± <0.01.

`NC(CCl)C(=O)O` (centres unmarked) [3CA] was tested, and the “incubation with purified protein, base release of cofactors, HPLC” value [4] was “Alr but not IlvA is sensitive to 3-chloroalanine (3CA)”.

For `Cc1ncc(COP(=O)(O)O)c(C=O)c1O` [PLP], the PLP [5] was 0.87 ± <0.01, the PLP [6] was 1.25 ± 0.04 nmol/nmol protein and the PLP [7] was 0.30 ± <0.01.

With `Cc1ncc(COP(=O)(O)O)c(CN)c1O` [PMP] the PMP [8] was 0.33 ± <0.01.
